≈ marks a conversion by molar mass, not a printed value.
Assay: Effect of polymer modification on drug solubility: maximum solubility in water at room temperature, compound added step-wise
Format: physicochemical
Settings: unmodified base drug
Method: The polymer-modified compound was added step-wise to water to determine the maximum solubility at room temperature.

## O=C(O)c1ccccc1O [Salicylic Acid, salicylic acid]
  Solubility of Drug: 16 mM
water
  solubility: 2200 µg/mL (≈ 15.9 mM)

Source: US8431113B2, “Polymer conjugates” (Biocompatibles UK Limited, priority 2002, dated 2013)
